Data: US11634384B2, “Prodrugs of phenolic TRPV1 agonists” (Concentric Analgesics, Inc., priority 2014, dated 2023)
Where two headings read alike, the source gives them in different places. Each block holds one compound with its values, some of them ahead of it.

Tests used:
[1] = comparison value; cited from earlier work
[2] = In vitro (pH stability) assay: intramolecular cyclization-release of capsaicin; format: physicochemical
Description: These compounds are examples of pH activated prodrugs whereby upon exposure to a specific pH, the half-life of the intramolecular cyclization-release reaction is determined. As previously described, the intramolecular cyclization-release reaction results in the concomitant formation of a cyclic urea with the release of the parent drug.
Compounds were incubated in the buffer/biological media indicated (TRIS® obtained from Sigma-Aldrich, St. Louis, Mo., USA, Catalog No. T1503). The reactions were conducted at either room temperature or 37° C.

[3] = Solubility assay in DI water; format: physicochemical; details: for solubility at 24 h: thermodynamic from solid, HCl salts, incubated at 50 or 100 mg/mL in DI water, shaking 24 hours, supernatant quantified
Description: In order to determine the aqueous solubility of the compounds described herein, the HCl salts of the following compounds were incubated at either 50 or 100 mg/mL in DI water followed by shaking for 24 hours. The solutions were then centrifuged and visually inspected for insoluble material. In all cases, no insoluble material was observed.

[4] = target: T1, TRPV receptor (Rattus norvegicus, UniProt O35433); test: biochemical; format: binding
T1 construct: purchased Eurofins, Panlabs/Cerep 286810
T1 sequence (O35433 whole entry): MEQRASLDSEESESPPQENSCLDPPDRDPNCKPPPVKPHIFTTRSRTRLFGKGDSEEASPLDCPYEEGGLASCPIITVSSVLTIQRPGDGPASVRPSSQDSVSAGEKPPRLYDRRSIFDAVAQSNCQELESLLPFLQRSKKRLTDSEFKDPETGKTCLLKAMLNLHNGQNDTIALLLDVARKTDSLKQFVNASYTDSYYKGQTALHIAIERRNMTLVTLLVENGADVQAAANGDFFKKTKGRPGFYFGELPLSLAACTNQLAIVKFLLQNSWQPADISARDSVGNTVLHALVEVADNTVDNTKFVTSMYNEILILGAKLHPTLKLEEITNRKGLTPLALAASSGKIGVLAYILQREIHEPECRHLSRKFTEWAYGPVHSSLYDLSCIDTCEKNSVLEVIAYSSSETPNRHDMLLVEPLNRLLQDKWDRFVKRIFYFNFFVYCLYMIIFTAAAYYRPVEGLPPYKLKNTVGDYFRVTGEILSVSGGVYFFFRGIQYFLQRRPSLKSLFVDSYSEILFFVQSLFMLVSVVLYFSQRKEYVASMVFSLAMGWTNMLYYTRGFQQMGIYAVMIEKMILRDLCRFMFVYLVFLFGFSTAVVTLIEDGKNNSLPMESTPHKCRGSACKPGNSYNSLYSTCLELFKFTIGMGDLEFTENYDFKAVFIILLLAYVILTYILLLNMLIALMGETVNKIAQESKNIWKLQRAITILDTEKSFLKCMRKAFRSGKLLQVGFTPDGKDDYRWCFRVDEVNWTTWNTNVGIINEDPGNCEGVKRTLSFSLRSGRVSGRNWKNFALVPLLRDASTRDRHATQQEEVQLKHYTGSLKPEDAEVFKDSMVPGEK

[5] = target: T1, TRPV receptor; details: historical controls; read-out: historical control value; cited from earlier work
[6] = pH 7.4, pH = ~7.4 (0.3M aqueous tris buffer), 20° C., read-out: Intramolecular Cyclization-Release Half-life (T1/2)
[7] = pH 7.4, pH = ~7.4 (1.0M aqueous tris buffer), 37° C., read-out: Intramolecular Cyclization-Release Half-life (T1/2)

Structure (SMILES): COc1cc(CNC(=O)CCCCC=CC(C)C)ccc1O [Capsaicin, 8-methyl-N-vanillyl-6-nonenamide]
aqueous solubility of capsaicin in water [1]: ~0.064 mg/mL

Structure (SMILES): COc1cc(CNC(=O)CCCC/C=C/C(C)C)ccc1OC(=O)N(C)CCN [Compound 1, (E)-2-methoxy-4-((8-methylnon-6-enamido)methyl)phenyl (2-aminoethyl)(methyl)carbamate]
half-life [2, 6]: ~24.1 h

Structure (SMILES): CNCCN(C)C(=O)Oc1ccc(CNC(=O)CCCC/C=C/C(C)C)cc1OC [Compound 2, (E)-2-methoxy-4-((8-methylnon-6-enamido)methyl)phenyl methyl(2-(methylamino)ethyl)carbamate]
half-life [2, 6]: ~3.2 h

Structure (SMILES): COc1cc(CNC(=O)CCCC/C=C/C(C)C)ccc1OC(=O)N1CCCCC1CN (stereo not drawn) [Compound 3, (E)-2-methoxy-4-((8-methylnon-6-enamido)methyl)phenyl 2-(aminomethyl)piperidine-1-carboxylate]
half-life [2, 6]: ~0.527 h | half-life [2, 7]: ~0.215 h | increase in aqueous solubility from the parent compound, capsaicin ([3]; hydrogen chloride salts vs capsaicin): > 780 fold | solubility at 24 h [3]: > 100 mg/mL

Structure (SMILES): COc1cc(CNC(=O)CCCC/C=C/C(C)C)ccc1OC(=O)N1CCCC1CN (stereo not drawn) [Compound 4, (E)-2-methoxy-4-((8-methylnon-6-enamido)methyl)phenyl 2-(aminomethyl)pyrrolidine-1-carboxylate]
half-life [2, 6]: ~295 h

Structure (SMILES): COc1cc(CNC(=O)CCCC/C=C/C(C)C)ccc1OC(=O)N(CCN)CCN [Compound 5, (E)-2-methoxy-4-((8-methylnon-6-enamido)methyl)phenyl bis(2-aminoethyl)carbamate]
half-life [2, 6]: ~1.18 h | half-life [2, 7]: ~0.412 h | solubility at 24 h [3]: > 100 mg/mL

Structure (SMILES): COc1cc(CNC(=O)CCCC/C=C/C(C)C)ccc1OC(=O)N(C)CCCN [Compound 6, (E)-2-methoxy-4-((8-methylnon-6-enamido)methyl)phenyl (3-aminopropyl)(methyl)carbamate]
half-life [2, 6]: ~739 h

intramolecular cyclization-release half-life, order of magnitude in words [2]: minutes | Intramolecular Cyclization-Release Half-life (T1/2) ([2]; pH 7.4): ~3.1 min | half-life ([2]; pH 7.4, Intramolecular Cyclization-Release Half-life (T1/2)): ~0.0733 h | solubility at 24 h [3]: > 50 mg/mL
Structure (SMILES): CNCC1CCCCN1C(=O)Oc1ccc(CNC(=O)CCCC/C=C/C(C)C)cc1OC (stereo not drawn) [Compound 7, (E)-2-methoxy-4-((8-methylnon-6-enamido)methyl)phenyl 2-((methylamino)methyl)piperidine-1-carboxylate]

Structure (SMILES): COc1cc(CNC(=O)CCCC/C=C/C(C)C)ccc1OC(=O)N1CCNCC1 [Compound 8, (E)-2-methoxy-4-((8-methylnon-6-enamido)methyl)phenyl piperazine-1-carboxylate]
inhibition at 100 µM ([4]; @ 100 uM): 23% | IC50 ([4]; read-out: IC50): > 100000 nM | half-life at 2 weeks ([2]; pH 7.4, pH = ~7.4 (0.3M aqueous tris buffer), 20° C., conversion to capsaicin over 2 weeks, read-out: Intramolecular Cyclization-Release Half-life (T1/2)): > 336 h

Structure (SMILES): C=C(C)[C@]12C[C@@H](C)[C@@]34O[C@](Cc5ccccc5)(O[C@@H]1[C@@H]3C=C(COC(=O)Cc1ccc(O)c(OC)c1)C[C@]1(O)C(=O)C(C)=C[C@@H]41)O2 [Resiniferatoxin, reference compound]
IC50 [4]: 0.16 nM | IC50 [5]: 0.46 nM
